Patent US20170029841A1, “METHODS AND COMPOSITIONS FOR SELECTIVE REGULATION OF PROTEIN EXPRESSION” (priority 2015, published 2017)

B1: SEQ ID NO: 13: recombinant mts-siRNA target element sequence (nucleic acid)
DNA: ACGTGATAACTTCTATGCTGGCTGTGATTGCTAGTTGAAGAAAAGAATAGATATGGTGACATCAAGTTTCCACTGCGTGACG
modifications: chemistry not fully specified; the letters are possibly those of the target site
B2: SEQ ID NO: 15: recombinant mts-siRNA target element sequence (nucleic acid)
DNA: TCGTCCAAACGTGACCGTGTGGCTAGAAGCAGAGGATGGCGATATGCACGTTATGCTTTCCTAGACTCTCACTGTAGTGG
modifications: chemistry not fully specified; the letters are possibly those of the target site
B3: SEQ ID NO: 2: mts-siRNA target element, single nucleotide change (T69A) relative to SEQ ID NO: 1 (nucleic acid)
DNA: AGACGACGACCGTGCATGGTGATGAATCACAGACGACGAACACGCATGTCGCATCGCCGTCCTCTTTGAATCACACAGCATCACCTTCTTCGCTCTACTACTCCCCCGAGCAATCACCGACCAATAACACCAACCATCAACCTCCCCCGTCGCCGCCGCCTTCACCGTCCTCCCCTCACACCATAGAACTGCAAATGTCCG
B4: SEQ ID NO: 9: reverse complement of mts-siRNA target element, 99% identity to positions 191 to 490 of cDNA SEQ ID NO: 22 (nucleic acid)
DNA: GGACAACAAGCACCTTCTTGCCTTGCAAGGCCTCCCTTCCCTATGGTAGCCACTTGAGTGGATGACTTCACCTTAAAGCTATTGATTCCCTAAGTGCCAGACATAATAGGCTATACATTCTCTCTGGTGGCAACAATGAGCCATTTTGGTTGGTGTGGTAGTCTATTATTGAGTTTTTTTTGGCACCGTACTCCCATGGAGAGTAGAAGACAAACTCTTCACCGTTGTAGTCGTTGATGGTATTGGTGGTGACGACATCCTTGGTGTGCATGCACTGGTGAGTCACTGTTGTACTCGGCG
modifications: Zea mays
B5: SEQ ID NO: 16: recombinant mts-siRNA target element sequence (nucleic acid)
DNA: GACAACAAGCACCTTCTTGCCTTGCAGTATTGGTGGTGACGACATCCTTGGTGTGCATGCACTGGTGAGTCACTGTTGTACGTGATAACTTCTATGCTGGCTGTGATTGCTAGTTGAAGAAAAGAATAGATATGGTGACATCAAGTTTCCACTGCGTGACGCCAACGTGCATATCGCCATCCTCTGCTACGAGGGAATGTCATTGGTCGATGAGATGAGGGTGAATCGGATGTTGAGGTGGCACGATAGTTAAGGCGCAAGGGT
B6: SEQ ID NO: 14: recombinant mts-siRNA target element sequence (nucleic acid)
DNA: CCCAACGTGCATATCGCCATCCTCTGCTACGAGGGAATGTCATTGGTCGATGAGATGAGGGTGAATCGGATGTTGAGGTGGCACGATAGTTAAGGCGCAAGGGTAT
modifications: chemistry not fully specified; the letters are possibly those of the target site

Columns and labels:
[1] = tested on: maize tissue pools (tassel, ear, leaf, root, stem); assay: siRNA profiling microarray assay of mts-siRNA sequences across maize tissues; conditions: for 01DKD2 V8-V9 Tassel relative signal value: germplasm 01DKD2, V8-V9 tassel; for 01DKD2 V10-V12 Tassel relative signal value: germplasm 01DKD2, V10-V12 tassel; for 01DKD2 Other Tissue relative signal value: germplasm 01DKD2, combined signals from other tissue; for LH244 V8-V9 Tassel relative signal value: germplasm LH244, V8-V9 tassel; for LH244 V10-V12 Tassel relative signal value: germplasm LH244, V10-V12 tassel; for LH244 Other Tissue relative signal value: germplasm LH244, combined signals from other tissue
Method in brief: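 Total RNA from LH244 or 01DKD2 inbred maize tissue pools hybridized to microfluidic chips with triplicate complementary probes for 1,200 mts-siRNAs. Signals background-subtracted and normalized, reported as relative values with standard error. Differential expression by t-test, p<0.05.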

[2] = tested on: transgenic maize R0 plants (double copy events); assay: R0 plant greenhouse glyphosate spray: vegetative tolerance and induced male sterility; assay type: in vivo; conditions: for % Vegetative Tolerant / % Completely Male-sterile / % No Pollen: vector configuration A; for % Vegetative Tolerant: glyphosate 0.75 lb ae/acre at V5 then V8, <=10% injury 7 days after V5 spray; for % Completely Male-sterile: no anther extrusion up to S90+12 after V8 glyphosate; for % No Pollen: no viable pollen by Alexandar staining
Experimental: Transformation vectors containing the recombinant DNA constructs were used with an Agrobacterium-based transformation method and maize immature embryos and techniques known in the art. Leaf samples of R0 plants were collected and molecular analysis was conducted to select transgenic plants containing a single copy (one insertion) or a double copy (two independent insertions) of the recombinant DNA construct and no presence of vector backbone. Single copy events were not sprayed with glyphosate and were selfed and advanced for R1 seed collection, while double copy events were used for R0 glyphosate spray to assess vegetative tolerance and induced male sterility. Transgenic plants that were not sprayed with glyphosate had normal anthesis, normal pollen shedding, and normal pollen development as determined by Alexandar staining and microscopic observation.
Double copy R0 events were used in testing to approximate a single copy homozygous event. Plants were sprayed with glyphosate at two different growth stages to determine if the presence of the mts-siRNA target element in the recombinant DNA construct provided vegetative glyphosate tolerance and glyphosate-induced tassel sterility. The plants were sprayed in a greenhouse with 1× glyphosate (0.75 lb ae/acre) applied at the V5 stage followed by 1× glyphosate (0.75 lb ae/acre) applied at the V8 stage. Seven days after the V5 stage glyphosate application, plants were scored for vegetative injury with scores of ≦10% injury considered as showing vegetative glyphosate tolerance (% Vegetative Tolerant). Male sterility was measured in two ways. […] Anthers were then collected and dissected to microscopically observe pollen development. Anthers for each event were tested for no viable pollen grains produced as detected by Alexandar staining under microscopic observation and scored as not producing any viable pollen (% No Pollen). In plants not sprayed with glyphosate, tassel development, anther extrusion, and pollen development were normal.
The mts-siRNA target elements were tested in multiple transformation vector configurations. Each transformation vector was used to produce multiple R0 plants with each R0 plant representing a unique transgenic event made using the same transformation vector. Data for three different transformation vector configurations are provided as Tables 11 and 12.

| Molecule | 01DKD2 V8-V9 Tassel relative signal value [1] | 01DKD2 V10-V12 Tassel relative signal value [1] | 01DKD2 Other Tissue relative signal value [1] | LH244 V8-V9 Tassel relative signal value [1] | LH244 V10-V12 Tassel relative signal value [1] | LH244 Other Tissue relative signal value [1] | % No Pollen [2] | also measured |
| --- | --- | --- | --- | --- | --- | --- | --- | --- |
| SEQ ID NO: 79: mts-siRNA sequence aligning to cDNA SEQ ID NO: 22 (CAAGGCAAGAAGGTGCTTGTTGTCC; expressed or natural sequence) | 5 | 290.5 | 2 | 197.5 | 269.3 | 1.9 | – | – |
| SEQ ID NO: 80: mts-siRNA sequence aligning to cDNA SEQ ID NO: 22 (CATCAACGACTACAACGGTGAA; expressed or natural sequence) | 2.5 | 230 | 0.5 | 138 | 383.3 | 0.7 | – | – |
| SEQ ID NO: 81: mts-siRNA sequence aligning to cDNA SEQ ID NO: 22 (ACCATCAACGACTACAACGGTGAA; expressed or natural sequence) | 1 | 320 | 0 | 207 | 470.3 | 1.6 | – | – |
| SEQ ID NO: 82: mts-siRNA sequence aligning to cDNA SEQ ID NO: 22 (AGGCCTCCCTTCCCTATGGTAGCC; expressed or natural sequence) | 71.5 | 211 | 54.8 | 95.5 | 137 | 217.4 | – | – |
| SEQ ID NO: 83: mts-siRNA sequence aligning to cDNA SEQ ID NO: 22 (CAAGGCAAGAAGGTGCTT; expressed or natural sequence) | 2 | 253.5 | 1.5 | 173 | 303 | 2.5 | – | – |
| SEQ ID NO: 84: mts-siRNA sequence aligning to cDNA SEQ ID NO: 22 (AAGAAGGTGCTTGTTGTC; expressed or natural sequence) | 0 | 20 | 1 | 13 | 35.7 | 4.4 | – | – |
| SEQ ID NO: 85: mts-siRNA sequence aligning to cDNA SEQ ID NO: 22 (CAAGGCAAGAAGGTGCTTGTTGT; expressed or natural sequence) | 2.5 | 246 | 2.5 | 184 | 310 | 2.8 | – | – |
| SEQ ID NO: 86: mts-siRNA sequence aligning to cDNA SEQ ID NO: 22 (CAAGGCAAGAAGGTGCTTGTTGTC; expressed or natural sequence) | 3 | 256.5 | 3 | 173.5 | 241.7 | 2.4 | – | – |
| SEQ ID NO: 87: mts-siRNA sequence aligning to cDNA SEQ ID NO: 22 (ACCAAGGATGTCGTCACCACCAAT; expressed or natural sequence) | 25 | 91.5 | 2.5 | 56 | 104 | 4.7 | – | – |
| B1 | – | – | – | – | – | – | 0% | % Vegetative Tolerant ([2]; listed as 13): 100%; % Completely Male-sterile [2]: none; % Completely Male-sterile ([2]; listed as 13): 0% |
| B2 | – | – | – | – | – | – | 0% | % Vegetative Tolerant ([2]; listed as 15): 90%; % Completely Male-sterile [2]: none; % Completely Male-sterile ([2]; listed as 15): 0% |
| B3 | – | – | – | – | – | – | 82% | tassel male sterility and pollen by Alexandar stain ([2]; double copy R0 events with SEQ ID NO: 2, glyphosate 0.75 lb ae/acre at V5 then V8): very few aborted pollen grains or no pollen grains were detected; % Vegetative Tolerant ([2]; listed as 2): 100%; % Completely Male-sterile ([2]; listed as 2): 82% |
| B4 | – | – | – | – | – | – | 0% | % Vegetative Tolerant ([2]; listed as 9): 100%; % Completely Male-sterile ([2]; listed as 9): 40% |
| B5 | – | – | – | – | – | – | 0% | % Vegetative Tolerant [2]: 80%; % Completely Male-sterile [2]: 50% |
| B6 | – | – | – | – | – | – | 0% | % Vegetative Tolerant ([2]; listed as 14): 90%; % Completely Male-sterile [2]: none; % Completely Male-sterile ([2]; listed as 14): 0% |
